In patent publication US3982999A, “Complexing cresolase with copper chelating agents” (priority 1974, dated 1976):
Where “and” joins values, the source holds several entries; their conditions need not be identical. Equal values may be shown once. Read-outs that look alike come from different tables or passages of the source.

Columns and labels:
[1] = test system: L1210 mouse leukemia; test: Antileukemia activity against L1210 mouse leukemia in BDF1 mice (survival); assay type: in vivo; settings: for T/C (test group mean day of death / control group mean day of death): Day 1 through Day 9, uninjected control group
Procedure: (§1) Male BDF1 mice, initial weight ca 23g, were inoculated i.p. on Day 0 with 10^5 L1210 cells per mouse. Treatment was initiated on Day 1 and continued through Day 9. Animals were weighed on days 1 and 5 to assess toxicity. Agents were prepared fresh daily as follows: 8-OH-quinoline (Eastman Chemical Co.) was dissolved in a small volume of absolute ethanol and diluted to the appropriate concentration with 0.1M sodium phosphate buffer, pH 6.5 (final ethanol concentration: 3%). Dilutions were made in buffer containing 3% ethanol. Tyrosinase^2 (Sigma Chemical Co., lot 121C-9530) was dissolved in buffer containing 3% ethanol. (Previous studies had shown that 3% ethanol had no effect on the activity of the enzyme) For the combination, 8-OH-quinoline was again dissolved in a small volume of ethanol, but diluted with 0.1M sodium phosphate buffer; pH6.5, containing tyrosinase in the appropriate concentration. Dilutions were made in buffer containing both 3% ethanol and tyrosinase so that both ethanol and tyrosinase concentrations remained constant as the 8-OH-quinoline concentration decreased. The combination was "incubated" at room temperature for 30 minutes before administration. The radio of enzyme to substrate administered in the combination was varied from 1:1 to 1:.125.
Actual doses administered and results comprise Table IV. Results are expressed as the ratio (T/C) of the test group mean day of death to control group mean day of death.

[2] = test system: Tyrosinase (polyphenol oxidase) isolated from mushrooms; settings: control 0.0433
Procedure: ^a Tyrosinase (polyphenol oxidase) isolated from mushrooms and purchased from Sigma, St. Louis, Mo. The reaction was carried out in 2 quartz curvette containing 1 ml of phosphate buffer (0.5 M, pH 6.5) 1 ml of substrate (1 mM L-tyrosine in H2 O), 0.5 ml of solvent or drug, 0.5 ml H2 O (for blank), 0.4 ml H2 O and 0.1 ml of enzyme (0.5 mg/ml) for the reaction tube. The reaction was started by the addition of enzyme and the change of optical density (Δ O.D.) was determined at 1 min intervals.

[3] = Day 1-5 weight change of L1210-bearing mice to assess toxicity; assay type: in vivo
Procedure: as §1

[4] = test system: L1210 leukemia cells; test: 3-day L1210 cell growth inhibition assay in culture (complete or regular medium); assay type: cell-based, mouse; settings: for L1210 Cell Growth (cell concentration day 3 - day 0): control growth 147.9
Description: (§2) In this experiment, we further investigated the effects of tyrosinase on L1210 cell growth with two media; 1) complete or regular medium and; 2) tyrosine-phenylalanine depleted medium.
(§3) ^a 3-day cell growth inhibition assay.
^b Cell Growth = (cell concentration day 3 - cell concentration day 0

[5] = Preliminary toxicity study, single intraperitoneal dose; settings: mouse, in vivo, ip; single intraperitoneal (i.p.) dose, suspended in Klucel (0.3% hydroxy-propylcellulose), male BDF1 mice
[6] = test system: L1210 leukemia cells; test: 3-day L1210 cell growth inhibition assay in tyrosine-phenylalanine depleted medium; assay type: cell-based, mouse; settings: Tyrosine and Phenylalamine Depleted Medium, 0.15 g/ml 8-Hydroxyquinoline
Description: as §2, §3

[7] = 8-Hydroxyquinoline 0.15 μg/ml, Tyrosinase 0

Which “T/C (test group mean day of death / control group mean day of death)” value ([1]; 2.5 mg/kg/day) does the source give for `Oc1cccc2cccnc12` [8-Hydroxyquinoline, 8-hydroxyquinoline] here?
Its value is “.95”.

And the “T/C (test group mean day of death / control group mean day of death)” value ([1]; 5 mg/kg/day)?
Its value is “.92”.

And the “T/C (test group mean day of death / control group mean day of death)” value ([1]; 10 mg/kg/day)?
The value was “.97”.

And the “T/C (test group mean day of death / control group mean day of death)” value ([1]; 20 mg/kg/day)?
The value was “.97”.

And the “Mean day of Death (I.S.D.)” value ([1]; mouse, in vivo, listed as 8-OH-quinoline)?
Its value is 9.5 ± 0.8 days and 9.5 ± 0.4 days and 9.0 ± 0.6 days and 9.3 ± 0.8 days.

And the “Reaction Rate” value ([2]; 8-Hydroxyquinoline 10 μg/ml)?
The value was 0.0353 Δ OD/Min.

And the “Reaction Rate” value ([2]; 8-Hydroxyquinoline 50 μg/ml)?
The value was 0.0160 Δ OD/Min.

What about the “Reaction Rate” value ([2]; 8-Hydroxyquinoline 200 μg/ml) of the same compound?
Its value is 0.0007 Δ OD/Min.

What about the “Day 1-5 Weight Change” value ([3]; 2.5 mg/kg/day) of the same compound?
The value was -0.3 gm/mouse.

What about the “Day 1-5 Weight Change” value ([3]; 5 mg/kg/day) of the same compound?
The value was “+1.4 gm/mouse”.

And the “Day 1-5 Weight Change” value ([3]; 10 mg/kg/day)?
Its value is “+1.0 gm/mouse”.

And the “Day 1-5 Weight Change” value ([3]; 20 mg/kg/day)?
Its value is “+1.0 gm/mouse”.

What about the “L1210 Cell Growth (cell concentration day 3 - day 0)” value ([4]; 8-Hydroxyquinoline 0.1 μg/ml, Tyrosinase 0) of the same compound?
The value was 126.8 × 10^3 cells/ml.

And the “L1210 Cell Growth % Inhibition (%I)” value [4, 7]?
The value was 61.9%.

And the “L1210 Cell Growth (cell concentration day 3 - day 0)” value [4, 7]?
The value was 56.4 × 10^3 cells/ml.

And the “L1210 Cell Growth (cell concentration day 3 - day 0)” value ([4]; 8-Hydroxyquinoline 0.2 μg/ml, Tyrosinase 0)?
Its value is 7.4 × 10^3 cells/ml.

What about the “Inhibition (%)” value ([4]; Completed Medium, 0.15 g/ml 8-Hydroxyquinoline, two experiments) of the same compound?
The value was 12.1% and 21.8%.

And the “Cell × 10^3 /ml” value ([4]; Completed Medium, 0.15 g/ml 8-Hydroxyquinoline, two experiments (controls 391.9, 358.5))?
The value was 344.5 × 10^3 /ml and 280.2 × 10^3 /ml.

What about the inhibition at 0.1 µg/mL ([4]; Mus musculus, L1210, 8-Hydroxyquinoline 0.1 μg/ml, Tyrosinase 0, read-out: L1210 Cell Growth % Inhibition (%I)) of the same compound?
Its inhibition at 0.1 µg/mL is 14.3%.

What about the inhibition at 0.15 µg/mL ([4]; Mus musculus, L1210, 8-Hydroxyquinoline 0.15 μg/ml, Tyrosinase 0, read-out: L1210 Cell Growth % Inhibition (%I)) of the same compound?
Its inhibition at 0.15 µg/mL is > 60%.

And the inhibition at 0.2 µg/mL ([4]; Mus musculus, L1210, 8-Hydroxyquinoline 0.2 μg/ml, Tyrosinase 0, read-out: L1210 Cell Growth % Inhibition (%I))?
The inhibition at 0.2 µg/mL was 95%.

What about the LD50 [5] of the same compound?
The LD50 was ~75 mg/kg.

And the “Inhibition (%)” value ([6]; two experiments)?
The value was 45.6% and 52.2%.

What about the “Cell × 10^3 /ml” value ([6]; two experiments (controls 102.5, 62.1)) of the same compound?
The value was 55.8 × 10^3 /ml and 29.7 × 10^3 /ml.
